Target: PIK3CA (human) (UniProt P42336)
Test: Assessment of PIK3CA Kinase Activity

PIK3CA (human), sequence (P42336 whole entry, looked up): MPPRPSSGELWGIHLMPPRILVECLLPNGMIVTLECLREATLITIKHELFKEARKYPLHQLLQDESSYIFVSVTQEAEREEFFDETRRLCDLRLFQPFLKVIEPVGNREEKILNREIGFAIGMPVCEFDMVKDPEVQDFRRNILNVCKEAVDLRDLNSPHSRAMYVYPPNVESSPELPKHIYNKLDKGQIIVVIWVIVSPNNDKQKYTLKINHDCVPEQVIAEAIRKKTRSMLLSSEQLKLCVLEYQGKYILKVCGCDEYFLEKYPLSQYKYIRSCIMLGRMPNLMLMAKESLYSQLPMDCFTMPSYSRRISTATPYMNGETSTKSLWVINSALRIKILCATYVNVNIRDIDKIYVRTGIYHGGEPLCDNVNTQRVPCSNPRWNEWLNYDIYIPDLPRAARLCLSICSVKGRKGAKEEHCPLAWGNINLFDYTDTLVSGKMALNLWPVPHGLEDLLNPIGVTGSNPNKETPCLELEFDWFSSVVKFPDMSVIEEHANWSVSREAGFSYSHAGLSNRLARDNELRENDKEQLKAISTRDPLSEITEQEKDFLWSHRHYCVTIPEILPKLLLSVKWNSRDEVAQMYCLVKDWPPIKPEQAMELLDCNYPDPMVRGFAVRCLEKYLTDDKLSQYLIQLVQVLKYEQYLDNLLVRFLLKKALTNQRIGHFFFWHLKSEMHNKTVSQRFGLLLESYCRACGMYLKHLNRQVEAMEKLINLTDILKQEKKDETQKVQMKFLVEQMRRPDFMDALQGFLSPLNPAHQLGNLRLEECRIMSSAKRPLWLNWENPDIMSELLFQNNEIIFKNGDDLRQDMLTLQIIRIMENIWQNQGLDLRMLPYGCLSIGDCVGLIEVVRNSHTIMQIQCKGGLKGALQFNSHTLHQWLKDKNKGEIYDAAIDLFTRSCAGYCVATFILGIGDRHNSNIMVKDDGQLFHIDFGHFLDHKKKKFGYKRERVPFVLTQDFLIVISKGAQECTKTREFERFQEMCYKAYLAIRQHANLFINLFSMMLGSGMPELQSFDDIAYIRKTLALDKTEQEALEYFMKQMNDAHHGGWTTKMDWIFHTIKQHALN

Row | SMILES | IC50
1 | COCCOc1cc(-c2ccc3c(c2)CN(c2nc(CN(C)C)nc4c2CC(C)(C)CC4)CCO3)ccc1OC | ≤ 100 nM
2 | Cc1nc2cc(-c3ccc4c(c3)CN(c3nc(NC5CNC5)nc(C)c3C(C)C)CCO4)ccc2[nH]1 | ≤ 100 nM
3 | Cc1nc2cc(-c3ccc4c(c3)CN(c3nc(CF)nc5c3CC(C)(C)CC5)CCO4)ccc2[nH]1 | ≤ 100 nM
4 | Cc1nc2ccc(-c3ccc4c(c3)CN(c3nc(CN(C)C)nc(C)c3C)CCO4)cc2[nH]1 | ≤ 100 nM
5 | COCCc1c(C)nc(CN(C)C)nc1N1CCOc2ccc(-c3ccc4nc(C)[nH]c4c3)cc2C1 | ≤ 100 nM
6 | COc1ccc2c(N3CCOc4ccc(-c5cnc6[nH]cnc6c5)cc4C3)nc(CN(C)C)nc2c1 | ≤ 100 nM
7 | CC(=O)NCc1nc2c(c(N3CCOc4ccc(-c5ccc6[nH]c(C)nc6c5)cc4C3)n1)CC(C)(C)CC2 | ≤ 100 nM
8 | CC1(C)CCc2nc(N)nc(N3CCOc4ccc(-c5ccc6[nH]cnc6c5)cc4C3)c2C1 | ≤ 100 nM
9 | Cc1nc2cc(-c3ccc4c(c3)CN(c3nc(N)nc(C)c3Cc3ccc(F)cc3)CCO4)ccc2[nH]1 | ≤ 100 nM
10 | COc1ccc(-c2ccc3c(c2)CN(c2nc(CN(C)C)nc4c2CC(C)(C)CC4)CCO3)cc1OC(F)F | ≤ 100 nM
11 | Cc1nc2cc(-c3ccc4c(c3)CN(c3nc(NCCN(C)C)nc(C)c3Cc3ccc(F)cc3)CCO4)ccc2[nH]1 | ≤ 100 nM
12 | Cc1nc2cc(-c3ccc4c(c3)CN(c3nc(CN(C)C)nc(C)c3CCCF)CCO4)ccc2[nH]1 | ≤ 100 nM
13 | COc1ccc(-c2ccc3c(c2)CN(c2nc(CN(C)C)nc4c2CC(C)(C)CC4)CCO3)cc1C(C)=O | 100 to 500 nM
14 | Cc1nc2cc(-c3ccc4c(c3)CN(c3nc(CN(C)C)nc(C)c3CC(C)C)CCO4)ccc2[nH]1 | 100 to 500 nM
15 | COc1ccc(-c2ccc3c(c2)CN(c2nc(CN(C)C)nc(C)c2C(C)C)CCO3)cc1NS(C)(=O)=O | ≤ 100 nM
16 | CCNc1nc2cc(-c3ccc4c(c3)CN(c3nc(N)nc(C)c3C(C)C)CCO4)ccc2[nH]1 | ≤ 100 nM
17 | COc1ccc2c(N3CCOc4ccc(-c5ccc6[nH]cnc6c5)cc4C3)nc(CN(C)C)nc2c1 | ≤ 100 nM
18 | Cc1nc2cc(-c3ccc4c(c3)CN(c3nc(N)nc(C)c3C(C)C)CCO4)ccc2[nH]1 | ≤ 100 nM
19 | Cc1nc(N)nc(N2CCOc3ccc(-c4ccc5[nH]cnc5c4)cc3C2)c1C(C)C | ≤ 100 nM
20 | Cc1nc2cc(-c3ccc4c(c3)CN(c3nc(CN(C)C)nc(C)c3-c3ccccc3)CCO4)ccc2[nH]1 | 100 to 500 nM
21 | Cc1nc2cc(-c3ccc4c(c3)CN(c3nc(N)nc(C)c3C(C)C)CCO4)cnc2[nH]1 | ≤ 100 nM
22 | COc1ccc(-c2ccc3c(c2)CN(c2nc(N)nc(C)c2C(C)C)CCO3)cc1NS(C)(=O)=O | 100 to 500 nM
23 | Cc1nc2cc(-c3ccc4c(c3)CN(c3nc(N)nc5c3CC(C)(C)CC5)CCO4)ccc2[nH]1 | ≤ 100 nM
24 | Cc1nc(N)nc(N2CCOc3ccc(-c4ccc5[nH]cnc5c4)cc3C2)c1Cc1ccc(F)cc1 | ≤ 100 nM
25 | Cc1nc2cc(-c3ccc4c(c3)CN(c3nc(NC5CNC5)nc(C)c3Cc3ccc(F)cc3)CCO4)ccc2[nH]1 | ≤ 100 nM

Row | SMILES | IC50
26 | COc1ccc2c(N3CCOc4ccc(-c5ccc6[nH]c(C)nc6c5)cc4C3)nc(CN(C)C)nc2c1 | ≤ 100 nM
27 | COC(=O)Nc1nc2cc(-c3ccc4c(c3)CN(c3nc(N)nc(C)c3C(C)C)CCO4)ccc2[nH]1 | ≤ 100 nM
28 | Cc1nc2cc(-c3ccc4c(c3)CN(c3nc(N)nc(C)c3Cc3ccc(F)cc3)CCO4)cnc2[nH]1 | ≤ 100 nM
29 | Cc1nc2ccc(-c3ccc4c(c3)CN(c3nc(CO)nc(C)c3C(C)C)CCO4)cc2[nH]1 | ≤ 100 nM
30 | Cc1nc2cc(-c3ccc4c(c3)CN(c3nc(CN5CCCC5)nc(C)c3C(C)C)CCO4)ccc2[nH]1 | ≤ 100 nM
31 | Cc1nc2ccc(-c3cc(F)c4c(c3)CN(c3nc(N)nc(C)c3C(C)C)CCO4)cc2[nH]1 | ≤ 100 nM
32 | Cc1nc2cc(-c3ccc4c(c3)CN(c3nc(CN(C)C)nc(C)c3Br)CCO4)ccc2[nH]1 | ≤ 100 nM
33 | Cc1nc2ncc(-c3ccc4c(c3)CN(c3nc(N)nc5c3CC(C)(C)CC5)CCO4)cc2[nH]1 | ≤ 100 nM
34 | COC(=O)Cc1c(C)nc(CN(C)C)nc1N1CCOc2ccc(-c3ccc4nc(C)[nH]c4c3)cc2C1 | ≤ 100 nM
35 | Cc1nc2cc(-c3ccc4c(c3)CN(c3nc(CN(C)C)nc(C)c3Cl)CCO4)ccc2[nH]1 | 100 to 500 nM
36 | Cc1nc2cc(-c3ccc4c(c3)CN(c3cc(N)ncc3C#N)CCO4)ccc2[nH]1 | ≤ 100 nM
37 | Cc1nc2cc(-c3ccc4c(c3)CN(c3nc(C(C)N)nc5c3CC(C)(C)CC5)CCO4)ccc2[nH]1 (stereo not given) | ≤ 100 nM
38 | C=CCc1c(C)nc(N)nc1N1CCOc2ccc(-c3ccc4nc(C)[nH]c4c3)cc2C1 | ≤ 100 nM
39 | Cc1nc(N)nc(N2CCOc3ccc(-c4cnc5[nH]cnc5c4)cc3C2)c1C(C)C | ≤ 100 nM
40 | CCN(CC)Cc1nc(C)c(C(C)C)c(N2CCOc3ccc(-c4ccc5nc(C)[nH]c5c4)cc3C2)n1 | ≤ 100 nM
41 | Cc1nc(N)nc(N2CCOc3ccc(-c4cnc5[nH]cnc5c4)cc3C2)c1Cc1ccc(F)cc1 | ≤ 100 nM
42 | CCNc1nc(C)c(Cc2ccc(F)cc2)c(N2CCOc3ccc(-c4ccc5[nH]c(C)nc5c4)cc3C2)n1 | 100 to 500 nM
43 | Cc1nc2cc(-c3ccc4c(c3)CN(c3nc(NCCCN(C)C)nc(C)c3Cc3ccc(F)cc3)CCO4)ccc2[nH]1 | 100 to 500 nM
44 | CCCc1c(C)nc(CN(C)C)nc1N1CCOc2ccc(-c3ccc4nc(C)[nH]c4c3)cc2C1 | ≤ 100 nM
45 | Cc1nc2cc(-c3ccc4c(c3)CN(c3nc(CNCCF)nc(C)c3C(C)C)CCO4)ccc2[nH]1 | ≤ 100 nM
46 | COc1ccc(-c2ccc3c(c2)CN(c2nc(CN(C)C)nc4c2CC(C)(C)CC4)CCO3)cc1S(C)(=O)=O | ≤ 100 nM
47 | C=CCc1c(C)nc(CN(C)C)nc1N1CCOc2ccc(-c3ccc4nc(C)[nH]c4c3)cc2C1 | ≤ 100 nM
48 | CC(=O)OCc1nc(C)c(C(C)C)c(N2CCOc3ccc(-c4ccc5nc(C)[nH]c5c4)cc3C2)n1 | ≤ 100 nM
49 | CC1(C)CCc2nc(N)nc(N3CCOc4ccc(-c5cnc6[nH]cnc6c5)cc4C3)c2C1 | ≤ 100 nM
50 | Cc1nc(N)nc(N2CCOc3ccc(-c4cnc5[nH]c(N)nc5c4)cc3C2)c1C(C)C | ≤ 100 nM

From the Kinase Knowledgebase extract (Sharma et al. 2016)
